Data published in PMC4839570, “Novel Anthra[1,2-c][1,2,5]Thiadiazole-6,11-Diones as Promising Anticancer Lead Compounds: Biological Evaluation, Characterization & Molecular Targets Determination” (PLoS ONE, 2016).
Read-outs that look alike come from different tables or passages of the source.

How the values were obtained:
SK-MEL-2 = test: NCI-60 cytotoxicity screen; format: cell-based
UO-31 = test: NCI-60 cytotoxicity screen; format: cell-based
RPMI-8226 = test: NCI-60 cytotoxicity screen; format: cell-based
UACC-257 = test: NCI-60 cytotoxicity screen; format: cell-based
SF-295 = test: JFCR-39 cytotoxicity screen; format: cell-based
A498 = test: NCI-60 cytotoxicity screen; format: cell-based
PC-3 = test: NCI-60 cytotoxicity screen; format: cell-based
SNB-19 = test: NCI-60 cytotoxicity screen; format: cell-based
SW-620 = test: NCI-60 cytotoxicity screen; format: cell-based
NCI-H522 = test: JFCR-39 cytotoxicity screen; format: cell-based
KM12 = test: NCI-60 cytotoxicity screen; format: cell-based
[1] = system: NF-κB p65 subunit in OVCAR-3 cells; test: Western blotting of nuclear and cytosolic fractions; format: cell-based, human; conditions: OVCAR-3 nuclear fraction
Protocol: Treated cells were fractionated into nuclear and cytosolic fractions using the Nuclear/Cytosol fractionation kit (BioVision), separated by electrophoresis in SDS-PAGE gels and transferred to Amersham Hybond-P PVDF Membranes. Membranes were probed with either anti-NF-κB p65 rabbit monoclonal primary antibody [E379] Abcam # ab32536, anti-TATA binding protein (TBP) mouse antibody (1TBP18), or anti-beta Tubulin rabbit antibody [NB600-936]. After washing, membranes were incubated with either goat anti-rabbit IgG H&L (HRP) (ab6721), or rabbit anti-mouse IgG H&L (HRP) (ab6728) secondary antibodies. Membranes were developed using the Immobilon Western chemiluminescent HRP substrate kit. Protein bands were normalized to either the beta Tubulin or TBP bands and quantified using ImageJ software.

SK-OV-3 = test: NCI-60 cytotoxicity screen; format: cell-based
M14 = test: NCI-60 cytotoxicity screen; format: cell-based
OVCAR-8 = test: NCI-60 cytotoxicity screen; format: cell-based
SNB-78 = test: JFCR-39 cytotoxicity screen; format: cell-based
HCC-2998 = test: NCI-60 cytotoxicity screen; format: cell-based
SR = test: NCI-60 cytotoxicity screen; format: cell-based; conditions: Homo sapiens, Fig 7, read-out: mean log10 of the GI50 values (converted)
OVCAR-3 [2] = conditions: JFCR
MCF7 = test: NCI-60 cytotoxicity screen; format: cell-based
T-47D = test: NCI-60 cytotoxicity screen; format: cell-based
HBC-4 = test: JFCR-39 cytotoxicity screen; format: cell-based
OVCAR-4 = test: JFCR-39 cytotoxicity screen; format: cell-based
OVCAR-3 [3] = conditions: five-dose
UACC-62 = test: NCI-60 cytotoxicity screen; format: cell-based
NCI-H23 = test: NCI-60 cytotoxicity screen; format: cell-based
HCC2998 = test: JFCR-39 cytotoxicity screen; format: cell-based
HS 578T = test: NCI-60 cytotoxicity screen; format: cell-based
K-562 = test: NCI-60 cytotoxicity screen; format: cell-based
[4] = Homo sapiens, Fig 7, read-out: mean log10 of the GI50 values (converted)
[5] = Homo sapiens, five-dose, read-out: GI50
[6] = Homo sapiens, five-dose, read-out: LC50 (the source's name)
[7] = Homo sapiens, read-out: LC50 (the source's name)

For `O=C1c2ccccc2C(=O)c2c1ccc1nsnc21` [NSC745885, anthra[1,2-c][1,2,5]thiadiazole-6,11-dione], the GI50 (SK-MEL-2; [4]) was 2000 nM, the GI50 (SK-MEL-2; [5]) was 1680 nM and the CC50 (SK-MEL-2; [6]) was 22.5 µM. It also gave a TGI (SK-MEL-2; five-dose) of 4.22 µM, a GI50 (UO-31; [4]) of 1780 nM and a GI50 (UO-31; [5]) of 1620 nM. The CC50 (UO-31; [6]) was 6.01 µM, the TGI (UO-31; five-dose) was 3.12 µM and the GI50 (RPMI-8226; [4]) was 1350 nM. It also gave a GI50 (RPMI-8226; [5]) of 1180 nM, a CC50 (RPMI-8226; [6]) greater than 100 µM and a TGI (RPMI-8226; five-dose) of 3.46 µM. The GI50 (UACC-257; [4]) was 1620 nM, the GI50 (UACC-257; [5]) was 1740 nM and the CC50 (UACC-257; [6]) was 7.09 µM. The TGI (UACC-257; five-dose) was 3.51 µM, the TGI (SF-295) was 3.3 µM and the GI50 (SF-295; Homo sapiens) was 1800 nM. The CC50 (SF-295; [7]) was 5.9 µM, the GI50 (A498; [4]) was 35.5 µM and the GI50 (A498; [5]) was 12.4 µM. It also gave a CC50 (A498; [6]) of 52 µM, a TGI (A498; five-dose) of 25.4 µM and a GI50 (PC-3; [4]) of 3.16 µM. For the same molecule, the GI50 (PC-3; [5]) was 3.23 µM, the CC50 (PC-3; [6]) was greater than 100 µM and the TGI (PC-3; five-dose) was greater than 100 µM. For the same molecule, the GI50 (SNB-19; [4]) was 2040 nM, the GI50 (SNB-19; [5]) was 2280 nM and the CC50 (SNB-19; [6]) was 26 µM. For the same molecule, the TGI (SNB-19; five-dose) was 5.82 µM, the GI50 (SW-620; [4]) was 3890 nM and the GI50 (SW-620; [5]) was 1790 nM. It also gave a CC50 (SW-620; [6]) of 6.84 µM, a TGI (SW-620; five-dose) of 3.50 µM and a TGI (NCI-H522) of 3.0 µM. It also gave a GI50 (NCI-H522; Homo sapiens) of 1300 nM, a CC50 (NCI-H522; [7]) of 6.7 µM and a GI50 (KM12; [4]) of 4.68 µM. The GI50 (KM12; [5]) was 1.96 µM, the CC50 (KM12; [6]) was 59.7 µM and the TGI (KM12; five-dose) was 5.54 µM. The “dose of almost complete inhibition of nuclear NF-κB p65 expression” value [1] was 2.4 µM, the GI50 (SK-OV-3; [4]) was 4.17 µM and the GI50 (SK-OV-3; [5]) was 7.71 µM. It also gave a CC50 (SK-OV-3; [6]) of 53.4 µM, a TGI (SK-OV-3; five-dose) of 22.5 µM and a GI50 (M14; [4]) of 2290 nM. It also gave a GI50 (M14; [5]) of 2150 nM, a CC50 (M14; [6]) greater than 100 µM and a TGI (M14; five-dose) of 4.85 µM. It also gave a GI50 (OVCAR-8; [4]) of 1200 nM, a GI50 (OVCAR-8; [5]) of 1660 nM and a CC50 (OVCAR-8; [6]) of 59.8 µM. It also gave a TGI (OVCAR-8; five-dose) of 4.68 µM, a TGI (SNB-78) of 3.4 µM and a GI50 (SNB-78; Homo sapiens) of 1700 nM. It also gave a CC50 (SNB-78; [7]) of 6.9 µM, a GI50 (HCC-2998; [4]) of 5.89 µM and an LC50 (concentration causing 50% net cell kill) (HCC-2998; Homo sapiens, five-dose) of 66.6 µM. It also gave a GI50 (HCC-2998; [5]) of 16.4 µM, a TGI (HCC-2998; five-dose) of 33.1 µM and a GI50 (SR) of 6.92 µM. For the same molecule, the TGI (OVCAR-3 [2]) was 2.0 µM, the GI50 (MCF7; [4]) was 1380 nM and the GI50 (MCF7; [5]) was 1530 nM. The CC50 (MCF7; [6]) was 7.29 µM, the TGI (MCF7; five-dose) was 3.34 µM and the GI50 (T-47D; Homo sapiens, T47D, Fig 7, read-out: mean log10 of the GI50 values (converted)) was 724 nM. For the same molecule, the GI50 (T-47D; Homo sapiens, T47D, five-dose, read-out: GI50) was 1390 nM, the CC50 (T-47D; Homo sapiens, T47D, five-dose, read-out: LC50 (the source's name)) was 8.27 µM and the TGI (T-47D; five-dose) was 3.39 µM. The TGI (HBC-4) was 3.0 µM, the GI50 (HBC-4; Homo sapiens, HBC4) was 1700 nM and the CC50 (HBC-4; Homo sapiens, HBC4, read-out: LC50 (the source's name)) was 5.5 µM. For the same molecule, the TGI (OVCAR-4) was 2.9 µM, the GI50 (OVCAR-4; Homo sapiens) was 1500 nM and the CC50 (OVCAR-4; [7]) was 5.5 µM. For the same molecule, the TGI (OVCAR-3 [3]) was 2.46 µM, the GI50 (UACC-62; [4]) was 1820 nM and the GI50 (UACC-62; [5]) was 1450 nM. The CC50 (UACC-62; [6]) was 5.79 µM, the TGI (UACC-62; five-dose) was 2.90 µM and the GI50 (NCI-H23; [4]) was 1070 nM. The GI50 (NCI-H23; [5]) was 1440 nM, the CC50 (NCI-H23; [6]) was greater than 100 µM and the TGI (NCI-H23; five-dose) was 6.04 µM. It also gave a TGI (HCC2998) of 3.9 µM, a GI50 (HCC2998; Homo sapiens, HCC 2998) of 2100 nM and a CC50 (HCC2998; Homo sapiens, HCC 2998, read-out: LC50 (the source's name)) of 7.5 µM. The TGI (HS 578T; HS 578T, five-dose) was 5.02 µM, the GI50 (HS 578T; Homo sapiens, Hs-578T, HS578T, Fig 7, read-out: mean log10 of the GI50 values (converted)) was 2630 nM and the GI50 (HS 578T; Homo sapiens, HS 578T, five-dose, read-out: GI50) was 1410 nM. The CC50 (HS 578T; Homo sapiens, HS 578T, five-dose, read-out: LC50 (the source's name)) was 56 µM, the GI50 (K-562; Homo sapiens, K562, Fig 7, read-out: mean log10 of the GI50 values (converted)) was 2510 nM and the GI50 (K-562; Homo sapiens, K562, five-dose, read-out: GI50) was 1920 nM. The CC50 (K-562; Homo sapiens, K562, five-dose, read-out: LC50 (the source's name)) was 41.2 µM and the TGI (K-562; five-dose) was 15.9 µM.
